Laboratory results as given in US4277479A, “Tetrazolylalkoxycarbostyril derivatives and pharmaceutical compositions containing them” (Otsuka Pharmaceutical Co., Ltd., priority 1978, dated 1981).
Where two headings read alike, the source gives them in different places. One block for each compound: values may come before it.

What was measured:
[1] = system: rabbit platelet (collagen-induced aggregation); test: Platelet aggregation inhibitory effect, collagen-induced aggregation in rabbit platelet; assay type: cell-based; conditions: Oryctolagus cuniculus, read-out: Inhibition effect on collagen-induced aggregation in rabbit platelet
Text: (§1) The blood sample used for the test is a 1/9 (by volume) mixture of sodium citrate and whole blood collected from rabbit. Said sample is subjected to 10-minute centrifugal separation at 1,000 r.p.m. to obtain a platelet rich plasma (PRP). The thus obtained PRP is separated, and the remaining blood sample is further subjected to 15-minute centrifugal separation at 3,000 r.p.m. to obtain a platelet poor plasma (PPP).
(§2) The number of platelets in the PRP is counted by the Brecher-Clonkite Method, and the PRP is diluted with the PPP to prepare a PRP sample with platelet concentration of 300,000/mm^3 for the adenosine diphosphate (ADP)-induced aggregation test. There is also prepared a PRP sample with platelet concentration of 450,000/mm^3 for the collagen-induced aggregation test.
(§3) 0.6 Ml of said PRP sample is added into 0.01 ml of a solution of a test compound of a predetermined concentration and the mixture is placed in a 37° C. thermostat for one minute. Then 0.07 ml of an ADP or collagen solution is added to the mixture. Transmittance of this mixture is determined and the change of transmittance is recorded by using the aggregometer at stirrer speed of 1,100 r.p.m. […] ADP is adjusted to a concentration of 7.5×10^-5 M, and the collagen solution is prepared by triturating 100 mg of collagen with 5 ml of said buffer and the supernatant is used as collagen inducer. Adenosine and acetylsalicylic acid are used as controls for the ADP-induced aggregation test and the collagen-induced aggregation test, respectively. The platelet aggregation inhibitory effect is measured in terms of percent inhibition with respect to the aggregation rate of the controls. The aggregation rate is calculated from the following formula: [formula] wherein a: transmittance of PRP
(§4) b: transmittance of PRP containing a test compound and an aggregation inducer
(§5) The compounds tested are as follows.

[2] = system: rabbit platelet (ADP-induced aggregation); test: Platelet aggregation inhibitory effect, ADP-induced aggregation in rabbit platelet; assay type: cell-based; conditions: Oryctolagus cuniculus, read-out: Inhibition effect on ADP-induced aggregation in rabbit platelet
Text: as §1, §2, §3, §4, §5

Acute toxicity test = conditions: mouse, in vivo; male mice, oral administration
Procedure: The test compounds were administered orally to the mice and LD50 (mg/kg) of the compounds was determined.

[3] = target: T1, cyclic AMP phosphodiesterase (Oryctolagus cuniculus, UniProt G1ST54); test: Obstructive action against cyclic AMP phosphodiesterase; assay type: biochemical, rabbit; conditions: 0.4 μmol cyclic AMP, read-out: Phosphodiesterase obstruction rate
T1 construct: the supernatant was collected to use it as a crude enzyme solution; from tissue; host or cells: rabbit platelets (from platelet-rich plasma)
T1 sequence (G1ST54 1-1128): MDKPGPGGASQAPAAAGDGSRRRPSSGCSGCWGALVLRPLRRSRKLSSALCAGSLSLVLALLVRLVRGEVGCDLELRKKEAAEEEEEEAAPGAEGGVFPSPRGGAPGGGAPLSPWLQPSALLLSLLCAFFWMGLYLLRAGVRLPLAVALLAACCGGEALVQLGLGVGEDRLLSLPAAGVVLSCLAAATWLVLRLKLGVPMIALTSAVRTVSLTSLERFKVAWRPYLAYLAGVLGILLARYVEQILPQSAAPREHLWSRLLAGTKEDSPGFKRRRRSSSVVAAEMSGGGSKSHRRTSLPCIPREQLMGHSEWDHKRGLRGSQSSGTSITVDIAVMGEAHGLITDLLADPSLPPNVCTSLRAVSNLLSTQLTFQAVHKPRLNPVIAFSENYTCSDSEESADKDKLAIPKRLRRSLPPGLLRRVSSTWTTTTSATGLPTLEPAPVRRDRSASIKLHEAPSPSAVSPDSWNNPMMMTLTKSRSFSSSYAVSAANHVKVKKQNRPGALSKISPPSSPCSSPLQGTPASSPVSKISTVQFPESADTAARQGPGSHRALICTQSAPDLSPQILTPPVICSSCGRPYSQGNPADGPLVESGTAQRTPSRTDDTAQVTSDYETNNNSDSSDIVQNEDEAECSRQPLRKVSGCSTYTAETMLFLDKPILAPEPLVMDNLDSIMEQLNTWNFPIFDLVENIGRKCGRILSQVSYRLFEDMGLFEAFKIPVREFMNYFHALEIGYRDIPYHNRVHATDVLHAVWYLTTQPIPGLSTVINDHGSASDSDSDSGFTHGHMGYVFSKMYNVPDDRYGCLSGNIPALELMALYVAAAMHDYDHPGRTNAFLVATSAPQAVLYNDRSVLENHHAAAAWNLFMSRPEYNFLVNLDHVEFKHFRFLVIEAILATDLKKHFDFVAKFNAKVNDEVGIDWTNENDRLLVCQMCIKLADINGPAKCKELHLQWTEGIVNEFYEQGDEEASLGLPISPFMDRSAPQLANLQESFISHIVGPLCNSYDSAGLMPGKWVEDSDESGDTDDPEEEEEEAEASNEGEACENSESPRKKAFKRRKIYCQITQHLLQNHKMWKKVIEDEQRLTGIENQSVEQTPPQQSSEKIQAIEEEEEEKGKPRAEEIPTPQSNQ
Procedure: (Test of obstructive action against cyclic AMP phosphodiesterase)
The obstructive action against cyclic AMP phosphodiesterase was measured according to the activity measuring method described in "Biochimica et Biophysica Acta", Vol. 429, pp. 485-497 (1976) and "Biochemical Medicine", Vol. 10, pp. 301-311 (1974).
That is, for determining the obstructive activity against cyclic AMP phosphodiesterase, 10 ml of a solution obtained by adding 1 mmol of MgCl2 into 50 mmol of tris-hydrochloric acid buffer with pH 7.4 was added to the platelets obtained by further centrifuging the above-said rabbit PRP at 3,000 r.p.m. for 10 minutes, and the suspended platelets were ground by a Teflon potter type homogenizer. This was followed by two times of freezing and thawing treatment and 300-second fracturing with 200 watt supersonic waves. After additional 60-minute centrifugation with 100,000 g, the supernatant was collected to use it as a crude enzyme solution.
10 Milliliters of this crude buffer solution was added to a 1.5×20 cm DEAE-cellulose column which has previously been buffered with 50 mmol of tris-acetate buffer (pH 6.0), followed by washing and elution with 30 ml of 50 mmol tris-acetate buffer, and this buffer solution was subjected to linear gradient elution with 0 to 1 moles of sodium acetate-tris-acetate buffer. The flow rate was 0.5 ml/min, and 5 ml of each fraction was batched out. […] This fraction was used as cyclic AMP phosphodiesterase.
0.1 Milliliter of an aqueous solution of each test compound of a specified concentration was mixed with 40 mmol of tris-hydrochloric acid buffer (pH 8.0, containing 50 μg of cow serum albumin and 4 mmol of MgCl2) containing predetermined 0.4 μmol of cyclic AMP (tritium cyclic AMP), and 0.2 ml of this mixed solution was used as a substrate solution.
0.2 Milliliter of the above-prepared cyclic AMP phosphodiesterase of a predetermined concentration was added to said substrate solution and the mixture was reacted at 30° C. for 20 minutes, producing tritium 5'-AMP from the tritium cyclic AMP.
The reaction system was then immersed in boiling water for 2 minutes to stop the reaction, and then this reaction solution was cooled in ice water and, for converting the produced tritium 5'-AMP into tritium adenosine, the solution was added with 0.05 ml (1 mg/ml) of snake poison as 5'-nucleotidase and reacted at 30° C. for 10 minutes. The whole amount of this reaction solutions was then added to a cation exchange resin (AG 500 W×4, 200-400 meshes, manufactured by Bio-Rad Co., column size: 0.5×1.5 cm), and the produced tritium anodesine alone was allowed to combine, washed with 6 ml of distilled water and eluted with 1.5 ml of 3 N-ammonia water. The whole quantity of the elutant was added with 10 ml of a triton-toluene type scintillator and the produced tritium adenosine was measured by a liquid scintillation counter to determine the phosphodiesterase activity.
In this way, the phosphodiesterase activation value (Vs) of the test compounds of the respective concentrations was determined, and the phosphodiesterase obstruction rate (%) was determined from said activation value (Vs) and control value (Vc) (obtained from water not containing any test compound) from the following formula: [formula]

[4] = concentration of the test compound solution 10^-4 mole
[5] = concentration of the test compound solution 10^-5 mole
[6] = concentration of the test compound solution 10^-6 mole

Structure (SMILES): O=C1CCc2c(cccc2OCCCN2CCCCC2)N1 [Compound 23, 5-(3-Piperidinopropoxy)-3,4-dihydrocarbostyril, reference compound]
- inhibition at 100 µM [1, 4]: 27%
- inhibition at 100 µM [2, 4]: 15%

Structure (SMILES): O=C1CCc2c(cccc2OCCN2CCCCC2)N1 [Compound 21, 5-(2-Piperidinoethoxy)-3,4-dihydrocarbostyril, reference compound]
- inhibition at 100 µM [1, 4]: 25%
- inhibition at 100 µM [2, 4]: 18%

Structure (SMILES): CCc1ccc(-n2nnnc2COc2ccc3c(c2)CCC(=O)N3)cc1 [Compound 15, 6-[1-(4-Ethylphenyl)tetrazol-5-yl-methoxy]3,4-dihydrocarbostyril]
- inhibition at 100 µM [1, 4]: 100%
- inhibition at 10 µM [1, 5]: 35.1%
- inhibition at 100 µM [2, 4]: 78.5%
- inhibition at 10 µM [2, 5]: 38.9%
- LD50 (Acute toxicity test): > 1000 mg/kg

Structure (SMILES): O=C1CCc2cc(OCCCn3cnnn3)ccc2N1 [Compound 20, 6-[3-(Tetrazol-1-yl)propoxy]-3,4-dihydrocarbostyril, reference compound]
- inhibition at 100 µM [1, 4]: 77.4%
- inhibition at 10 µM [1, 5]: 0%
- inhibition at 100 µM [2, 4]: 4.3%

Structure (SMILES): O=C1CCc2cc(OCCN3CCOCC3)ccc2N1 [Compound 24, 6-(2-Morpholinoethoxy)-3,4-dihydrocarbostyril, reference compound]
- inhibition at 100 µM [1, 4]: 31%
- inhibition at 100 µM [2, 4]: 17%

Structure (SMILES): O=c1ccc2cc(OCCCc3nnnn3C3CCCCC3)ccc2n1Cc1ccccc1 [Compound 12, 1-Benzyl-6-[3-(1-cyclohexyltetrazol-5-yl)propoxy]carbostyril]
- inhibition at 100 µM [1, 4]: 92.6%
- inhibition at 10 µM [1, 5]: 41.5%
- inhibition at 1 µM [1, 6]: 21.8%
- inhibition at 100 µM [2, 4]: 76.8%
- inhibition at 10 µM [2, 5]: 35.2%
- LD50 (Acute toxicity test): > 1000 mg/kg

Structure (SMILES): C=CCn1c(=O)ccc2cc(OCCCc3nnnn3C3CCCCC3)ccc21 [Compound 13, 1-Allyl-6-[3-(1-cyclohexyltetrazol-5-yl)propoxy]carbostyril]
- inhibition at 100 µM [1, 4]: 89.7%
- inhibition at 10 µM [1, 5]: 44.8%
- inhibition at 1 µM [1, 6]: 23.2%
- inhibition at 100 µM [2, 4]: 81.6%
- inhibition at 10 µM [2, 5]: 41.7%
- LD50 (Acute toxicity test): > 1000 mg/kg

Structure (SMILES): COc1cc(C(=O)N2C(=O)CCc3cc(OCCCc4nnnn4C4CCCCC4)ccc32)cc(OC)c1OC [Compound 16, 1-(3,4,5-Trimethoxybenzoyl)-6-[3-(1-cyclohexyltetrazol-5-yl)propoxy]-3,4-dihydrocarbostyril]
- inhibition at 100 µM [1, 4]: 91.3%
- inhibition at 10 µM [1, 5]: 45.3%
- inhibition at 100 µM [2, 4]: 75.6%
- inhibition at 10 µM [2, 5]: 48.4%
- LD50 (Acute toxicity test): > 1000 mg/kg

Structure (SMILES): CSc1nnn(CCCOc2ccc3c(c2)CCC(=O)N3)n1 [Compound 19, 6-[3-(5-Methylthiotetrazol-2-yl)propoxy]-3,4-dihydrocarbostyril, reference compound]
- inhibition at 100 µM [1, 4]: 73.4%
- inhibition at 10 µM [1, 5]: 1.3%
- inhibition at 100 µM [2, 4]: 2.3%

Structure (SMILES): CSc1nnnn1CCCOc1ccc2c(c1)CCC(=O)N2 [Compound 18, 6-[3-(5-Methylthiotetrazol-1-yl)propoxy]-3,4-dihydrocarbostyril, reference compound]
- inhibition at 100 µM [1, 4]: 67.4%
- inhibition at 10 µM [1, 5]: 13.3%
- inhibition at 100 µM [2, 4]: 0%

- inhibition at 1 µM ([3]; concentration of test compound solution 10^-6 mole): 63.4%
- inhibition ([3]; concentration of test compound solution 10^-7 mole): 4.2%
Structure (SMILES): CC(C)Cn1c(=O)n(C)c(=O)c2[nH]cnc21 [1-Methyl-3-isobutylxanthine, 1-methyl-3-isobutylxanthine, reference compound]

Structure (SMILES): O=C1CCc2ccc(OCCCN3CCCCC3)cc2N1 [Compound 25, 7-(3-Piperidinopropoxy)-3,4-dihydrocarbostyril, reference compound]
- inhibition at 100 µM [1, 4]: 18%
- inhibition at 100 µM [2, 4]: 12%

Structure (SMILES): CC(=O)Oc1ccccc1C(=O)O [Compound 17, Aspirin, reference compound]
- inhibition at 1 µM [1]: 7%
- inhibition at 10 µM [1]: 9%
- inhibition at 100 µM [1]: 65%
- inhibition at 10 µM [2]: 0%
- inhibition at 100 µM [2]: 7%

Structure (SMILES): CC(COc1cccc2c1NC(=O)CC2)N1CCCCC1 (centres unmarked) [Compound 26, 8-(2-Piperidinopropoxy)-3,4-dihydrocarbostyril, reference compound]
- inhibition at 100 µM [1, 4]: 12%
- inhibition at 100 µM [2, 4]: 14%

Structure (SMILES): O=C1CCc2c(cccc2OCCN2CCOCC2)N1 [Compound 22, 5-(2-Morpholinoethoxy)-3,4-dihydrocarbostyril, reference compound]
- inhibition at 100 µM [1, 4]: 23%
- inhibition at 100 µM [2, 4]: 13%
